Target: T1, hTSHR (Homo sapiens, UniProt P16473)
T1 construct: expressed in transfected cells
Experiment: hTSHR TR-FRET cAMP Assay (inhibition of M22-stimulated cAMP production)
Assay type: cell-based
Conditions: Expi293F Inducible cells stably expressing hTSHR; cAMP HTRF; stimulated with EC80 of anti-TSHR antibody M22; 15 min compound preincubation, 30 min at 37° C.; read-out: Activity (IC50 bins)
Summary of the method: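 Readout was a cAMP HTRF ratio of 655/620 nm after lysis, scaled between the EC80 M22 signal (0% inhibition) and no-agonist vehicle (100%). Frozen induced Expi293F-hTSHR cells saw test compounds (0.5% DMSO) for 15 min at 37 °C before 30 min of M22 stimulation at EC80.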

T1 sequence (P16473 21-764): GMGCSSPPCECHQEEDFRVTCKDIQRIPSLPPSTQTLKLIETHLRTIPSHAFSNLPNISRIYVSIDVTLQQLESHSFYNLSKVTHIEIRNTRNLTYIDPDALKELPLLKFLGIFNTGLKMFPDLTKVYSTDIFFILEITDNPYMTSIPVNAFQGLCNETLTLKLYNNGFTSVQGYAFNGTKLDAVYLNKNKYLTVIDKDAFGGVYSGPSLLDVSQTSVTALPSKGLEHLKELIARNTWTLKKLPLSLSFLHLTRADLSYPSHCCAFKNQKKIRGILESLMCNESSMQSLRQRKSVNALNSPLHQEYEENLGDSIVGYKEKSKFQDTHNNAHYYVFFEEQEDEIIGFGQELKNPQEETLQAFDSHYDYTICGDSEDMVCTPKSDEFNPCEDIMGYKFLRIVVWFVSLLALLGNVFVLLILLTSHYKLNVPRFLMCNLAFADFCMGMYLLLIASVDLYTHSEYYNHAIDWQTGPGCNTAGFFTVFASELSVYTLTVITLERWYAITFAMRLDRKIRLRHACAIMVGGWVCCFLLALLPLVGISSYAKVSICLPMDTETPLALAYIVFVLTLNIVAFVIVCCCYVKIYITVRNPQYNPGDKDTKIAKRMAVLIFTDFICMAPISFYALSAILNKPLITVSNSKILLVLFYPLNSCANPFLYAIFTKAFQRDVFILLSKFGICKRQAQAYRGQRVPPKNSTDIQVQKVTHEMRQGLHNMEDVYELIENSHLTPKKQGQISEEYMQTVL

Row | IC50 | Structure (SMILES)
1 | 100 to 1000 nM | C[C@H]1Oc2cc(NC(=O)NC3(C)CC(F)(F)C3)ccc2N(Cc2cccc(C(F)(F)F)n2)C1=O [Example 231, (R)-1-(3,3-difluoro-1-methylcyclobutyl)-3-(2-methyl-3-oxo-4-((6-(trifluoromethyl)pyridin-2-yl)methyl)-3,4-dihydro-2H-benzo[b][1,4]oxazin-7-yl)urea]
2 | 100 to 1000 nM | C[C@H]1Oc2cc(NC(=O)NC3(C(F)(F)F)CCC3)ccc2N(Cc2cccc(C(F)(F)F)n2)C1=O [Example 232, (R)-1-(2-methyl-3-oxo-4-((6-(trifluoromethyl)pyridin-2-yl)methyl)-3,4-dihydro-2H-benzo[b][1,4]oxazin-7-yl)-3-(1-(trifluoromethyl)cyclobutyl)urea]
3 | < 100 nM | C[C@H]1Oc2cc(NC(=O)NC3(C(F)(F)F)CCCC3)ccc2N(Cc2cccc(C(F)(F)F)n2)C1=O [Example 234, (R)-1-(2-methyl-3-oxo-4-((6-(trifluoromethyl)pyridin-2-yl)methyl)-3,4-dihydro-2H-benzo[b][1,4]oxazin-7-yl)-3-(1-(trifluoromethyl)cyclopentyl)urea]
4 | 100 to 1000 nM | C[C@H]1Oc2cc(NC(=O)NC(C)(C)CCO)ccc2N(Cc2ccccc2)C1=O [Example 236, (R)-1-(4-benzyl-2-methyl-3-oxo-3,4-dihydro-2H-benzo[b][1,4]oxazin-7-yl)-3-(4-hydroxy-2-methylbutan-2-yl)urea]
5 | < 100 nM | C[C@H]1Oc2cc(NC(=O)NC3CCCC3)ccc2N(Cc2ccccc2)C1=O [Example 237, (R)-1-(4-benzyl-2-methyl-3-oxo-3,4-dihydro-2H-benzo[b][1,4]oxazin-7-yl)-3-cyclopentylurea]
6 | > 1000 nM | C[C@H]1Oc2cc(NC(=O)NC(C)(C)[C@H]3C[C@@H](O)C3)ccc2N(Cc2ccccc2)C1=O [Example 238]
7 | > 1000 nM | CC(C)(C#N)CNC(=O)Nc1ccc2c(c1)ncc(=O)n2Cc1cccc(OC(F)(F)F)c1 [Example 241, 1-(2-cyano-2-methylpropyl)-3-(2-oxo-1-(3-(trifluoromethoxy)benzyl)-1,2-dihydroquinoxalin-6-yl)urea]
8 | > 1000 nM | CC(C)(CO)CNC(=O)Nc1ccc2c(c1)ncc(=O)n2Cc1cccc(OC(F)(F)F)c1 [Example 242, 1-(3-hydroxy-2,2-dimethylpropyl)-3-(2-oxo-1-(3-(trifluoromethoxy)benzyl)-1,2-dihydroquinoxalin-6-yl)urea]
9 | 100 to 1000 nM | CC(C)(CNC(=O)Nc1ccc2c(c1)ncc(=O)n2Cc1cccc(OC(F)(F)F)c1)C(F)(F)F [Example 244, 1-(2-oxo-1-(3-(trifluoromethoxy)benzyl)-1,2-dihydroquinoxalin-6-yl)-3-(3,3,3-trifluoro-2,2-dimethylpropyl) urea]
10 | 100 to 1000 nM | CC(c1cccc(C2CCC2)c1)n1c(=O)cnc2cc(NC(=O)NC(C)(C)C)ccc21 (centres unmarked) [Example 246, 1-(tert-butyl)-3-(1-(1-(3-cyclobutylphenyl)ethyl)-2-oxo-1,2-dihydroquinoxalin-6-yl)urea]
11 | 100 to 1000 nM | CC(c1cc(F)cc(OC(F)(F)F)c1)n1c(=O)cnc2cc(NC(=O)NC(C)(C)C)ccc21 (centres unmarked) [Example 247, 1-(tert-butyl)-3-(1-(1-(3-fluoro-5-(tri-fluoromethoxy)phenyl)ethyl)-2-oxo-1,2-dihydro-quinoxalin-6-yl)urea]
12 | > 1000 nM | CC(c1cccc(CCOCc2ccncc2)c1)n1c(=O)cnc2cc(NC(=O)NC(C)(C)C)ccc21 (centres unmarked) [Example 250, 1-(tert-butyl)-3-(2-oxo-1-(1-(3-(2-(pyridin-4-ylmethoxy)ethyl)phenyl)ethyl)-1,2-dihydro-quinoxalin-6-yl)urea]
13 | > 1000 nM | CC(c1cccc2ncccc12)n1c(=O)cnc2cc(NC(=O)NC(C)(C)C)ccc21 (centres unmarked) [Example 252, 1-(tert-butyl)-3-(2-oxo-1-(1-(quinolin-5-yl)ethyl)-1,2-dihydro-quinoxalin-6-yl)urea]
14 | < 100 nM | C[C@H]1Oc2cc(NC(=O)NC3(C)CCC3)ccc2N([C@@H](C)c2ccccc2)C1=O [Example 255, 1-((R)-2-methyl-3-oxo-4-((S)-1-phenylethyl)-3,4-dihydro-2H-benzo[b][1,4]oxazin-7-yl)-3-(1-methylcyclobutyl)urea]
15 | < 100 nM | C[C@H]1Oc2cc(NC(=O)NC3(C(F)(F)F)CCCC3)ccc2N([C@@H](C)c2ccccc2)C1=O [Example 257, 1-((R)-2-methyl-3-oxo-4-((S)-1-phen-ylethyl)-3,4-dihydro-2H-benzo[b][1,4]oxazin-7-yl)-3-(1-(trifluoromethyl)-cyclopentyl)urea]

Further lines, the compound ahead of its results:

Row | Structure (SMILES) | IC50
16 | COCC1(NC(=O)Nc2ccc3c(c2)O[C@H](C)C(=O)N3Cc2cccc(C(F)(F)F)n2)CCC1 [Example 233, (R)-1-(1-(methoxymethyl)cyclobutyl)-3-(2-methyl-3-oxo-4-((6-(trifluoromethyl)pyridin-2-yl)methyl)-3,4-dihydro-2H-benzo[b][1,4]oxazin-7-yl)urea] | 100 to 1000 nM
17 | C[C@H]1Oc2cc(NC(=O)NC3CCC(F)(F)CC3)ccc2N(Cc2cccc(C(F)(F)F)n2)C1=O [Example 235, (R)-1-(4,4-difluorocyclohexyl)-3-(2-methyl-3-oxo-4-((6-(trifluoromethyl)pyridin-2-yl)methyl)-3,4-dihydro-2H-benzo[b][1,4]oxazin-7-yl)urea] | 100 to 1000 nM
18 | CC(C)(O)CNC(=O)Nc1ccc2c(c1)ncc(=O)n2Cc1cccc(OC(F)(F)F)c1 [Example 239, 1-(2-hydroxy-2-methylpropyl)-3-(2-oxo-1-(3-(trifluoromethoxy)benzyl)-1,2-dihydroquinoxalin-6-yl)urea] | > 1000 nM
19 | CC(C)(C)CNC(=O)Nc1ccc2c(c1)ncc(=O)n2Cc1cccc(OC(F)(F)F)c1 [Example 240, 1-neopentyl-3-(2-oxo-1-(3-(trifluoromethoxy)benzyl)-1,2-dihydroquinoxalin-6-yl)urea] | 100 to 1000 nM
20 | CC(C)(CC(F)(F)F)NC(=O)Nc1ccc2c(c1)ncc(=O)n2Cc1cccc(OC(F)(F)F)c1 [Example 243, 1-(2-oxo-1-(3-(trifluoromethoxy)enzyl)-1,2-dihydroquinoxalin-6-yl)-3-(4,4,4-trifluoro-2-methylbutan-2-yl)urea] | 100 to 1000 nM
21 | CC(C)(CC#N)NC(=O)Nc1ccc2c(c1)ncc(=O)n2Cc1cccc(OC(F)(F)F)c1 [Example 245, 1-(1-cyano-2-methylpropan-2-yl)-3-(2-oxo-1-(3-(trifluoromethoxy)enzyl)-1,2-dihydroquinoxalin-6-yl)urea] | > 1000 nM
22 | CC(c1cccc(CCC2COC2)c1)n1c(=O)cnc2cc(NC(=O)NC(C)(C)C)ccc21 (centres unmarked) [Example 248, 1-(tert-butyl)-3-(1-(1-(3-(2-(oxetan-3-yl)ethyl)phenyl)ethyl)-2-oxo-1,2-dihydro-quinoxalin-6-yl)urea] | > 1000 nM
23 | CC(c1ccc2cnn(CCC(F)(F)F)c2c1)n1c(=O)cnc2cc(NC(=O)NC(C)(C)C)ccc21 (centres unmarked) [Example 249, 1-(tert-butyl)-3-(2-oxo-1-(1-(1-(3,3,3-trifluoropropyl)-1H-indazol-6-yl)ethyl)-1,2-dihydro-quinoxalin-6-yl)urea] | > 1000 nM
24 | CC(c1cccc2c1cnn2CCC(F)(F)F)n1c(=O)cnc2cc(NC(=O)NC(C)(C)C)ccc21 (centres unmarked) [Example 251, 1-(tert-butyl)-3-(2-oxo-1-(1-(1-(3,3,3-trifluoropropyl)-1H-indazol-4-yl)ethyl)-1,2-dihydro-quinoxalin-6-yl)urea] | > 1000 nM
25 | CC(c1cc(C(F)(F)F)ccn1)n1c(=O)cnc2cc(NC(=O)NC(C)(C)C)ccc21 (centres unmarked) [Example 253, 1-(tert-butyl)-3-(2-oxo-1-(1-(4-(trifluoromethyl)pyridin-2-yl)ethyl)-1,2-dihydro-quinoxalin-6-yl)urea] | > 1000 nM
26 | CC(c1nc(Cl)ccc1Cl)n1c(=O)cnc2cc(NC(=O)NC(C)(C)C)ccc21 (centres unmarked) [Example 254, 1-(tert-butyl)-3-(1-(1-(3,6-dichloropyridin-2-yl)ethyl)-2-oxo-1,2-dihydro-quinoxalin-6-yl)urea] | 100 to 1000 nM
27 | C[C@H]1Oc2cc(NC(=O)NC3(C)CCCC3)ccc2N([C@@H](C)c2ccccc2)C1=O [Example 256, 1-((R)-2-methyl-3-oxo-4-((S)-1-phenyl-ethyl)-3,4-dihydro-2H-benzo[b][1,4]oxazin-7-yl)-3-(1-methylcyclopentyl)-urea] | < 100 nM
28 | C[C@H]1Oc2cc(NC(=O)NC3CCC(F)(F)CC3)ccc2N([C@@H](C)c2ccccc2)C1=O [Example 258, 1-(4,4-difluoro-cyclohexyl)-3-((R)-2-methyl-3-oxo-4-((S)-1-phenyl-ethyl)-3,4-dihydro-2H-benzo[b][1,4]oxazin-7-yl)urea] | 100 to 1000 nM
29 | C[C@H]1Oc2cc(NC(=O)NC3(C(F)(F)F)CCC3)ccc2N([C@@H](C)c2ccccc2)C1=O [Example 259, 1-((R)-2-methyl-3-oxo-4-((S)-1-phenylethyl)-3,4-dihydro-2H-benzo [b][1,4]oxazin-7-yl)-3-(1-(trifluoro-methyl)cyclo-butyl)urea] | < 100 nM
30 | C[C@H]1Oc2cc(NC(=O)NC3(C)CC(F)(F)C3)ccc2N([C@@H](C)c2ccccc2)C1=O [Example 260, 1-(3,3-difluoro-1-methylcyclobutyl)-3-((R)-2-methyl-3-oxo-4-((S)-1-phen-ylethyl)-3,4-dihydro-2H-benzo[b][1,4]oxazin-7-yl)urea] | 100 to 1000 nM
31 | COCC1(NC(=O)Nc2ccc3c(c2)O[C@H](C)C(=O)N3[C@@H](C)c2ccccc2)CCC1 [Example 261, 1-(1-(methoxy-methyl)cyclobutyl)-3-((R)-2-methyl-3-oxo-4-((S)-1-phen-ylethyl)-3,4-dihydro-2H-benzo [b][1,4]oxazin-7-yl)urea] | 100 to 1000 nM
32 | C[C@H]1Oc2cc(NC(=O)NC3(C)COC3)ccc2N([C@@H](C)c2ccccc2)C1=O [Example 262, 1-((R)-2-methyl-3-oxo-4-((S)-1-phenylethyl)-3,4-dihydro-2H-benzo [b][1,4]oxazin-7-yl)-3-(3-methyl-oxetan-3-yl)urea] | > 1000 nM

— patent US20260365628A1, “SUBSTITUTED 3,4-DIHYDROQUINOLINONE INHIBITORS OF TSHR” (Septerna, Inc., priority 2022, published 2026)
